Source: the kinase profiling compilation of Christmann-Franck et al. (2016)

Columns and labels:
Assay in all cases: radiometric filter-binding kinase assay, Kinase HotSpot
Details in all cases: compound 0.5 µM; ATP 10 µM
CDK7 CCNH MNAT1 (human) = CDK7 CCNH MNAT1 (human) (UniProt P50613+P51948+P51946)
PTK6 (human) = PTK6 (human) (UniProt Q13882)
STK16 (human) = STK16 (human) (UniProt O75716)
AXL (human) = AXL (human) (UniProt P30530)
CAMKK1 (human) = CAMKK1 (human) (UniProt Q8N5S9)
AURKA (human) = AURKA (human) (UniProt O14965)
PIM2 (human) = PIM2 (human) (UniProt Q9P1W9)
NEK6 (human) = NEK6 (human) (UniProt Q9HC98)
CAMK1G (human) = CAMK1G (human) (UniProt Q96NX5)
MAPKAPK2 (human) = MAPKAPK2 (human) (UniProt P49137)
EPHB4 (human) = EPHB4 (human) (UniProt P54760)
MAP4K4 (human) = MAP4K4 (human) (UniProt O95819)
DYRK1B (human) = DYRK1B (human) (UniProt Q9Y463)
EPHA3 (human) = EPHA3 (human) (UniProt P29320)
STK3 (human) = STK3 (human) (UniProt Q13188)
LCK (human) = LCK (human) (UniProt P06239)
STK4 (human) = STK4 (human) (UniProt Q13043)
PRKCZ (human) = PRKCZ (human) (UniProt Q05513)
NEK3 (human) = NEK3 (human) (UniProt P51956)
DMPK (human) = DMPK (human) (UniProt Q09013)
TAOK1 (human) = TAOK1 (human) (UniProt Q7L7X3)
AURKB (human) = AURKB (human) (UniProt Q96GD4)
IRAK4 (human) = IRAK4 (human) (UniProt Q9NWZ3)
MARK2 (human) = MARK2 (human) (UniProt Q7KZI7)
AKT1 (human) = AKT1 (human) (UniProt P31749)
INSR (human) = INSR (human) (UniProt P06213)
MAP3K3 (human) = MAP3K3 (human) (UniProt Q99759)
FGR (human) = FGR (human) (UniProt P09769)
CSNK1G3 (human) = CSNK1G3 (human) (UniProt Q9Y6M4)
PRKCB1 (human) = PRKCB1 (human) (UniProt P05771)
TXK (human) = TXK (human) (UniProt P42681)
TTK (human) = TTK (human) (UniProt P33981)
MAPKAPK5 (human) = MAPKAPK5 (human) (UniProt Q8IW41)
FGFR1 (human) = FGFR1 (human) (UniProt P11362)
AKT2 (human) = AKT2 (human) (UniProt P31751)
FES (human) = FES (human) (UniProt P07332)
NTRK3 (human) = NTRK3 (human) (UniProt Q16288)
DAPK2 (human) = DAPK2 (human) (UniProt Q9UIK4)
MAPK12 (human) = MAPK12 (human) (UniProt P53778)
CSNK1G2 (human) = CSNK1G2 (human) (UniProt P78368)
NUAK1 (human) = NUAK1 (human) (UniProt O60285)
DYRK2 (human) = DYRK2 (human) (UniProt Q92630)
DYRK2 (human), sequence (Q92630 whole entry, looked up): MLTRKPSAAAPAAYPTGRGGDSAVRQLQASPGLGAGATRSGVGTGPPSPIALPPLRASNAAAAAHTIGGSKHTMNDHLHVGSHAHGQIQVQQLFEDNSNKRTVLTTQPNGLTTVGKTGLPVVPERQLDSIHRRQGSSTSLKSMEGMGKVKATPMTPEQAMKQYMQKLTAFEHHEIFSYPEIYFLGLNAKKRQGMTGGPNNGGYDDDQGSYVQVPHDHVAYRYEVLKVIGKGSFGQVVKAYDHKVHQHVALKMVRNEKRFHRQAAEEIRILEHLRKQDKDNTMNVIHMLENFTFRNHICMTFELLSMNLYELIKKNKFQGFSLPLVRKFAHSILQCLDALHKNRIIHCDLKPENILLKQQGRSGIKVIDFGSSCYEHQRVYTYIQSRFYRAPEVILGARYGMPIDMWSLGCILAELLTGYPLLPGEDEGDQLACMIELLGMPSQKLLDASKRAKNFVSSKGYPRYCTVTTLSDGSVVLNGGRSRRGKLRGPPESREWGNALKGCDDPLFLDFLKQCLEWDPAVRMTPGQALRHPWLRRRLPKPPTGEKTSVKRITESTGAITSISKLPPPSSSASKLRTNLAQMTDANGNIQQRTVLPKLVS

CSNK1G3 (human), sequence (Q9Y6M4 whole entry, looked up): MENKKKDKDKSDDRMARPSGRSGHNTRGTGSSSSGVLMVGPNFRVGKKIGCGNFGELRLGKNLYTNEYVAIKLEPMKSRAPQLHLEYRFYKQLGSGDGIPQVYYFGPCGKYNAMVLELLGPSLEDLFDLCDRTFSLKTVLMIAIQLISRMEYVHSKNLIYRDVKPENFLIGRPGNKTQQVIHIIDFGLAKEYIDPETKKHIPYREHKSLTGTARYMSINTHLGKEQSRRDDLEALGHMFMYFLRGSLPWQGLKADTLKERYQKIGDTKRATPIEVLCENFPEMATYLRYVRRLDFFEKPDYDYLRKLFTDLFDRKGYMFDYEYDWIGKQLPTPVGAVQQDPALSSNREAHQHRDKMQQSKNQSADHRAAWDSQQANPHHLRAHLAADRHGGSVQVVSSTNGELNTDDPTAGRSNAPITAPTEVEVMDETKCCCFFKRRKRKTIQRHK
NUAK1 (human), sequence (O60285 whole entry, looked up): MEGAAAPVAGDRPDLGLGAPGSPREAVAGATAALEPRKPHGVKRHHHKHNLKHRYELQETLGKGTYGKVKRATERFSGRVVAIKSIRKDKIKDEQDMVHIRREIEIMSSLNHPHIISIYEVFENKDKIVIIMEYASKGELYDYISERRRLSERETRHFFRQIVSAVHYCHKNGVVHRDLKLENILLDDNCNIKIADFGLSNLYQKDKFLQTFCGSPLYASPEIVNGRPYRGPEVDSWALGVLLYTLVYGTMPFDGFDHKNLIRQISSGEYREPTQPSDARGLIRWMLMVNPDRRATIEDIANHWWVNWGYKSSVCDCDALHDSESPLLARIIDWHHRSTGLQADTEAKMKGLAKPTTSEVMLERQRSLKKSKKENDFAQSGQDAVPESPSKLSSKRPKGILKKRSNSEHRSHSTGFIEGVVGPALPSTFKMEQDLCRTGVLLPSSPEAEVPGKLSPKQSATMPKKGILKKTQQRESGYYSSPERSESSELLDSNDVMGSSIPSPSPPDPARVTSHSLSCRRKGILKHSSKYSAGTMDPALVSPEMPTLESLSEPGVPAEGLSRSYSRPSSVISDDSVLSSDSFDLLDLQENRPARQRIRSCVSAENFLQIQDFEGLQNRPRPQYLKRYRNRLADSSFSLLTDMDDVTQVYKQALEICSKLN
CDK7 CCNH MNAT1 (human), sequence (P50613 whole entry, looked up): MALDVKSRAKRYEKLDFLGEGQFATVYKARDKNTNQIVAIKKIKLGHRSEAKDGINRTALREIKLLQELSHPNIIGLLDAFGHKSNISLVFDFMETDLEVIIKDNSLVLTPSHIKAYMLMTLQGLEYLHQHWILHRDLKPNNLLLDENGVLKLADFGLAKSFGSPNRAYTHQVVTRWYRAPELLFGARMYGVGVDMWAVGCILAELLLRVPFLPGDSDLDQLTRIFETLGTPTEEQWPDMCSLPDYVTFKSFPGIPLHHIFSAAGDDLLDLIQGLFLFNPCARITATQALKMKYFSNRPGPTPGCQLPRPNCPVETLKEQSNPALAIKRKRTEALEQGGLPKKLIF
CDK7 CCNH MNAT1 (human), sequence (P51946 whole entry, looked up): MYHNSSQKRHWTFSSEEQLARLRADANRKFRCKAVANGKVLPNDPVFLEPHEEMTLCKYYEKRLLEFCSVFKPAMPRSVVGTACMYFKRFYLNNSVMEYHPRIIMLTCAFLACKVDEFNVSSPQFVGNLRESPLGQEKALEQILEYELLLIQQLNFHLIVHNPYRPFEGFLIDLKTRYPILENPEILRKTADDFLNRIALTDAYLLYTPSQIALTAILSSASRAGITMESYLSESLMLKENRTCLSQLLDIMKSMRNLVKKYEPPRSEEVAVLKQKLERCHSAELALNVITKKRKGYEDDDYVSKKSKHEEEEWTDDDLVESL
CDK7 CCNH MNAT1 (human), sequence (P51948 whole entry, looked up): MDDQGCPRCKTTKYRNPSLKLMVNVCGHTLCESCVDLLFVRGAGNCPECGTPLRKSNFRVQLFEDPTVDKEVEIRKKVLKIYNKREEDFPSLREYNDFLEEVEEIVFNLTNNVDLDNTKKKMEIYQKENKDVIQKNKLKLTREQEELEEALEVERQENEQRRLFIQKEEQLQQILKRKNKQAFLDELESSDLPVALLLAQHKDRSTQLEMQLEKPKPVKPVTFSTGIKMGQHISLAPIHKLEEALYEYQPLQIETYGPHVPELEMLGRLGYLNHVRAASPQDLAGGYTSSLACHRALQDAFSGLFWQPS
DAPK2 (human), sequence (Q9UIK4 whole entry, looked up): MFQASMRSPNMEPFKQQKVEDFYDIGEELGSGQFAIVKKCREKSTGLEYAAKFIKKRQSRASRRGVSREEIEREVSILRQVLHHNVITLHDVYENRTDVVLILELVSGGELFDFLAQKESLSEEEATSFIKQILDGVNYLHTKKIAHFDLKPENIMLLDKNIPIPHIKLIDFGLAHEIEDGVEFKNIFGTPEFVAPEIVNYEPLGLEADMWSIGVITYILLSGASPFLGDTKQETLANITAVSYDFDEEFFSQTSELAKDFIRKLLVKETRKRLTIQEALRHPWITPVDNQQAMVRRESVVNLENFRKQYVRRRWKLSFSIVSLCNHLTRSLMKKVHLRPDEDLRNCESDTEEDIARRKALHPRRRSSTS
CAMKK1 (human), sequence (Q8N5S9 whole entry, looked up): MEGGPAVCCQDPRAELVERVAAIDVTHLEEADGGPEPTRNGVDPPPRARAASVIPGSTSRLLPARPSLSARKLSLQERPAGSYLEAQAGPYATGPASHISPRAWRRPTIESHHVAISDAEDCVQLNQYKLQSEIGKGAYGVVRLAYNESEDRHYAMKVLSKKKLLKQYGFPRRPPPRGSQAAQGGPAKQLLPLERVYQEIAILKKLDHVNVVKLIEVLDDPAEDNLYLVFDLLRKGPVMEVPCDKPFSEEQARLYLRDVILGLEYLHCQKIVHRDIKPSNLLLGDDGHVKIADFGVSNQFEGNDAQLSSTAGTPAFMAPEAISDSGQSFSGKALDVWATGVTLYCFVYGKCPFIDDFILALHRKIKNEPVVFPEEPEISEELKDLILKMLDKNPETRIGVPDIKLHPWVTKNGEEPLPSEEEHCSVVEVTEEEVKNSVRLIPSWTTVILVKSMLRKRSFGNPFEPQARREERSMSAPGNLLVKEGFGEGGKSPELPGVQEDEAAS
MAP3K3 (human), sequence (Q99759 whole entry, looked up): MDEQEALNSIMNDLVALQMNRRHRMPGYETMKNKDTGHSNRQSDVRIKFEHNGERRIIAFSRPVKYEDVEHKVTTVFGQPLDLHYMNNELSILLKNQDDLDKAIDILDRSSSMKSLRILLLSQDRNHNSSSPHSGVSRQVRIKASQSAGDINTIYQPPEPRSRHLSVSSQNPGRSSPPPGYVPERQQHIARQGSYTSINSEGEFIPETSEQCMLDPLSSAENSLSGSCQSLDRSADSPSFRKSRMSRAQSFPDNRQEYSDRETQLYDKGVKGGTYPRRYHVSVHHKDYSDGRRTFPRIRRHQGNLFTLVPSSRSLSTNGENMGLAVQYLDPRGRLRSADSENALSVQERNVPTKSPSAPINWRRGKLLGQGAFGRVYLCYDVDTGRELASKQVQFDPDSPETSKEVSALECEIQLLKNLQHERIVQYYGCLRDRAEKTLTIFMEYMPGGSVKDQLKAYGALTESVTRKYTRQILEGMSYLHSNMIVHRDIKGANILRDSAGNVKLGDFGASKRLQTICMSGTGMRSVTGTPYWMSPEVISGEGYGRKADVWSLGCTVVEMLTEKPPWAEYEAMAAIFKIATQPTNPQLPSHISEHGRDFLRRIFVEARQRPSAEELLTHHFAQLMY
MAPKAPK2 (human), sequence (P49137 whole entry, looked up): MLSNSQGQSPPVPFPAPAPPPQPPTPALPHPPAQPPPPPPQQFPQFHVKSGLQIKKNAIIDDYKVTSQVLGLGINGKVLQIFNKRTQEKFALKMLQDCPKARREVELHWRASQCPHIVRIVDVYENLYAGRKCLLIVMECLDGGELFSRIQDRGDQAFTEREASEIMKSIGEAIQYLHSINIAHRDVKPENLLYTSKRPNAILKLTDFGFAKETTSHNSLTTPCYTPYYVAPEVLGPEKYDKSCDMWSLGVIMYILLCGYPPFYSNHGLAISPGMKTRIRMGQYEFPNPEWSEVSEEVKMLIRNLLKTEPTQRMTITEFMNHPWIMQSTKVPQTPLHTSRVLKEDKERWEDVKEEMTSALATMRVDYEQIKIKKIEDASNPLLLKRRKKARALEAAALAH
PIM2 (human), sequence (Q9P1W9 whole entry, looked up): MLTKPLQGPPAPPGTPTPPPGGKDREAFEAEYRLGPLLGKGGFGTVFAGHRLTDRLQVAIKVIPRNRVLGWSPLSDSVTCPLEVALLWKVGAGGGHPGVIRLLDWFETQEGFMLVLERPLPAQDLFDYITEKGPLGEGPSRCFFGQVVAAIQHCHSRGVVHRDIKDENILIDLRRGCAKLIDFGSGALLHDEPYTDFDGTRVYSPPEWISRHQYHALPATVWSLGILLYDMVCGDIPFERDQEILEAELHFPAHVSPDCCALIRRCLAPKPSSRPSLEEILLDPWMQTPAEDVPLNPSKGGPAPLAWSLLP

COc1ccc(Cl)cc1NC(=O)Nc1cc(C)nc2ccccc12
residual activity (CDK7 CCNH MNAT1 (human)): 101%
residual activity (PTK6 (human)): 101%
residual activity (STK16 (human)): 105%
residual activity (AXL (human)): 94%
residual activity (CAMKK1 (human)): 113%
residual activity (AURKA (human)): 93.4%
residual activity (PIM2 (human)): 99.8%
residual activity (NEK6 (human)): 97.8%
residual activity (CAMK1G (human)): 102%
residual activity (MAPKAPK2 (human)): 109%
residual activity (EPHB4 (human)): 93.7%
residual activity (MAP4K4 (human)): 84.7%
residual activity (DYRK1B (human)): 99.7%
residual activity (EPHA3 (human)): 99.1%
residual activity (STK3 (human)): 98.9%
residual activity (LCK (human)): 98.2%
residual activity (STK4 (human)): 98.7%
residual activity (PRKCZ (human)): 99.4%
residual activity (NEK3 (human)): 114%
residual activity (DMPK (human)): 103%
residual activity (TAOK1 (human)): 103%
residual activity (AURKB (human)): 95.9%
residual activity (IRAK4 (human)): 99.9%
residual activity (MARK2 (human)): 99.5%
residual activity (AKT1 (human)): 95.8%
residual activity (INSR (human)): 93.2%
residual activity (MAP3K3 (human)): 111%
residual activity (FGR (human)): 92%
residual activity (CSNK1G3 (human)): 95.7%
residual activity (PRKCB1 (human)): 105%
residual activity (TXK (human)): 98.9%
residual activity (TTK (human)): 103%
residual activity (MAPKAPK5 (human)): 89.1%
residual activity (FGFR1 (human)): 86.1%
residual activity (AKT2 (human)): 94.9%
residual activity (FES (human)): 101%
residual activity (NTRK3 (human)): 102%
residual activity (DAPK2 (human)): 99.1%
residual activity (MAPK12 (human)): 101%
residual activity (CSNK1G2 (human)): 98.5%

N#Cc1c[nH]c2c[nH]/c(=N\Cc3cccnc3)cc2/c1=N\c1ccc(F)c(Cl)c1
residual activity (CDK7 CCNH MNAT1 (human)): 87.4%
residual activity (PTK6 (human)): 84.1%
residual activity (STK16 (human)): 93.8%
residual activity (AXL (human)): 103%
residual activity (CAMKK1 (human)): 105%
residual activity (AURKA (human)): 98.1%
residual activity (PIM2 (human)): 101%
residual activity (NEK6 (human)): 104%
residual activity (CAMK1G (human)): 96.1%
residual activity (MAPKAPK2 (human)): 100%
residual activity (EPHB4 (human)): 85.2%
residual activity (MAP4K4 (human)): 44.4%
residual activity (DYRK1B (human)): 65.2%
residual activity (EPHA3 (human)): 122%
residual activity (STK3 (human)): 94.3%
residual activity (LCK (human)): 97.3%
residual activity (NUAK1 (human)): 103%
residual activity (STK4 (human)): 100%
residual activity (DYRK2 (human)): 95.5%
residual activity (PRKCZ (human)): 93.9%
residual activity (NEK3 (human)): 56%
residual activity (DMPK (human)): 104%
residual activity (TAOK1 (human)): 89.9%
residual activity (AURKB (human)): 90.1%
residual activity (IRAK4 (human)): 100%
residual activity (MARK2 (human)): 93.2%
residual activity (AKT1 (human)): 98.6%
residual activity (INSR (human)): 85.1%
residual activity (MAP3K3 (human)): 75%
residual activity (FGR (human)): 84.5%
residual activity (CSNK1G3 (human)): 103%
residual activity (PRKCB1 (human)): 104%
residual activity (TXK (human)): 88.1%
residual activity (TTK (human)): 99.1%
residual activity (MAPKAPK5 (human)): 99.6%
residual activity (FGFR1 (human)): 83.4%
residual activity (AKT2 (human)): 101%
residual activity (FES (human)): 108%
residual activity (NTRK3 (human)): 93.2%
residual activity (DAPK2 (human)): 108%
residual activity (CSNK1G2 (human)): 102%

O=C(c1cc2cc(O)ccc2[nH]1)c1cc2cc(O)ccc2[nH]1
residual activity (CDK7 CCNH MNAT1 (human)): 93.5%
residual activity (PTK6 (human)): 91.9%
residual activity (STK16 (human)): 54.6%
residual activity (AXL (human)): 90.1%
residual activity (CAMKK1 (human)): 63.3%
residual activity (AURKA (human)): 71.6%
residual activity (PIM2 (human)): 108%
residual activity (NEK6 (human)): 99.6%
residual activity (CAMK1G (human)): 101%
residual activity (MAPKAPK2 (human)): 103%
residual activity (EPHB4 (human)): 89.3%
residual activity (MAP4K4 (human)): 6.63%
residual activity (DYRK1B (human)): 92%
residual activity (EPHA3 (human)): 101%
residual activity (STK3 (human)): 41.4%
residual activity (LCK (human)): 52%
residual activity (NUAK1 (human)): 69.2%
residual activity (STK4 (human)): 33.7%
residual activity (DYRK2 (human)): 89%
residual activity (NEK3 (human)): 111%
residual activity (DMPK (human)): 96.9%
residual activity (TAOK1 (human)): 85.6%
residual activity (AURKB (human)): 24.2%
residual activity (IRAK4 (human)): 85.9%
residual activity (MARK2 (human)): 59.9%
residual activity (AKT1 (human)): 98.2%
residual activity (INSR (human)): 93.8%
residual activity (MAP3K3 (human)): 96%
residual activity (FGR (human)): 12.7%
residual activity (CSNK1G3 (human)): 77.2%
residual activity (PRKCB1 (human)): 90.4%
residual activity (TXK (human)): 74.9%
residual activity (TTK (human)): 92.9%
residual activity (MAPKAPK5 (human)): 89.6%
residual activity (FGFR1 (human)): 86.5%
residual activity (AKT2 (human)): 104%
residual activity (FES (human)): 95.3%
residual activity (NTRK3 (human)): 13.4%
residual activity (DAPK2 (human)): 101%
residual activity (MAPK12 (human)): 97.9%
residual activity (CSNK1G2 (human)): 93.8%

Fc1ccc(-c2nc3n(c2-c2ccncc2)CCS3)cc1
residual activity (CDK7 CCNH MNAT1 (human)): 95%
residual activity (PTK6 (human)): 84.8%
residual activity (STK16 (human)): 106%
residual activity (AXL (human)): 95.8%
residual activity (CAMKK1 (human)): 113%
residual activity (AURKA (human)): 92.1%
residual activity (PIM2 (human)): 121%
residual activity (NEK6 (human)): 98.7%
residual activity (CAMK1G (human)): 95.2%
residual activity (MAPKAPK2 (human)): 101%
residual activity (EPHB4 (human)): 88%
residual activity (MAP4K4 (human)): 72.3%
residual activity (DYRK1B (human)): 104%
residual activity (EPHA3 (human)): 112%
residual activity (STK3 (human)): 111%
residual activity (LCK (human)): 96.2%
residual activity (NUAK1 (human)): 98.6%
residual activity (DYRK2 (human)): 101%
residual activity (PRKCZ (human)): 90.6%
residual activity (NEK3 (human)): 96.9%
residual activity (DMPK (human)): 102%
residual activity (TAOK1 (human)): 97.7%
residual activity (AURKB (human)): 98.5%
residual activity (IRAK4 (human)): 109%
residual activity (MARK2 (human)): 96.4%
residual activity (AKT1 (human)): 105%
residual activity (INSR (human)): 91.2%
residual activity (MAP3K3 (human)): 100%
residual activity (FGR (human)): 92.6%
residual activity (CSNK1G3 (human)): 97.9%
residual activity (PRKCB1 (human)): 94.2%
residual activity (TXK (human)): 98.9%
residual activity (TTK (human)): 100%
residual activity (MAPKAPK5 (human)): 97.2%
residual activity (FGFR1 (human)): 93.4%
residual activity (AKT2 (human)): 95.9%
residual activity (FES (human)): 104%
residual activity (NTRK3 (human)): 105%
residual activity (DAPK2 (human)): 113%
residual activity (MAPK12 (human)): 104%
residual activity (CSNK1G2 (human)): 76.4%

C[C@@H]1CCN(C(=O)CC#N)C[C@@H]1N(C)c1ncnc2[nH]ccc12
residual activity (CDK7 CCNH MNAT1 (human)): 119%
residual activity (PTK6 (human)): 101%
residual activity (STK16 (human)): 94.7%
residual activity (AXL (human)): 97.7%
residual activity (CAMKK1 (human)): 101%
residual activity (AURKA (human)): 84.1%
residual activity (PIM2 (human)): 116%
residual activity (NEK6 (human)): 83.2%
residual activity (CAMK1G (human)): 97.8%
residual activity (MAPKAPK2 (human)): 96.6%
residual activity (EPHB4 (human)): 89.8%
residual activity (MAP4K4 (human)): 101%
residual activity (DYRK1B (human)): 97%
residual activity (EPHA3 (human)): 94.1%
residual activity (STK3 (human)): 85.8%
residual activity (LCK (human)): 80.2%
residual activity (NUAK1 (human)): 71.2%
residual activity (STK4 (human)): 95.5%
residual activity (DYRK2 (human)): 112%
residual activity (PRKCZ (human)): 91.7%
residual activity (NEK3 (human)): 94.5%
residual activity (DMPK (human)): 108%
residual activity (TAOK1 (human)): 99.9%
residual activity (AURKB (human)): 99.2%
residual activity (IRAK4 (human)): 88.5%
residual activity (MARK2 (human)): 91.8%
residual activity (AKT1 (human)): 90.3%
residual activity (INSR (human)): 101%
residual activity (MAP3K3 (human)): 115%
residual activity (FGR (human)): 91.1%
residual activity (CSNK1G3 (human)): 101%
residual activity (PRKCB1 (human)): 101%
residual activity (TXK (human)): 98.4%
residual activity (TTK (human)): 108%
residual activity (MAPKAPK5 (human)): 97.3%
residual activity (FGFR1 (human)): 101%
residual activity (AKT2 (human)): 98%
residual activity (FES (human)): 104%
residual activity (NTRK3 (human)): 90%
residual activity (DAPK2 (human)): 89.5%
residual activity (CSNK1G2 (human)): 95.4%
